Key:
bedstraw = assay: Test B pre/postemergence bedstraw; assay type: in vivo, Galium aparine; conditions: Preemergence
How it was run: (§1)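 Herbicidal effect was estimated by eye on a ten-point control scale after plants spent twelve to sixteen days in a greenhouse following soil or foliar treatment. Foliar sprays targeted plants at one to four leaves; all doses were formulated in a non-phytotoxic solvent with surfactant.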

blackgrass = assay: Test B pre/postemergence blackgrass; assay type: in vivo, Alopecurus myosuroides; conditions: Preemergence
How it was run: as §1

surinam grass = assay: Test B pre/postemergence surinam grass; assay type: in vivo, Brachiaria decumbens; conditions: Preemergence
How it was run: as §1

cocklebur = assay: Test B pre/postemergence cocklebur; assay type: in vivo, Xanthium strumarium; conditions: Preemergence
How it was run: as §1

corn = assay: Test B pre/postemergence corn; assay type: in vivo, Zea mays; conditions: Preemergence
How it was run: as §1

crabgrass = assay: Test B pre/postemergence crabgrass; assay type: in vivo, Digitaria sanguinalis; conditions: Preemergence
How it was run: as §1

giant foxtail = assay: Test B pre/postemergence giant foxtail; assay type: in vivo, Setaria faberii; conditions: Preemergence
How it was run: as §1

morningglory = assay: Test B pre/postemergence morningglory; assay type: in vivo, Ipomoea hederacea; conditions: Preemergence
How it was run: as §1

pigweed = assay: Test B pre/postemergence pigweed; assay type: in vivo, Amaranthus retroflexus; conditions: Preemergence
How it was run: as §1

rape = assay: Test B pre/postemergence rape; assay type: in vivo, Brassica napus; conditions: Preemergence
How it was run: as §1

soybean = assay: Test B pre/postemergence soybean; assay type: in vivo, Glycine max; conditions: Preemergence
How it was run: as §1

sugar beet = assay: Test B pre/postemergence sugar beet; assay type: in vivo, Beta vulgaris; conditions: Preemergence
How it was run: as §1

velvetleaf = assay: Test B pre/postemergence velvetleaf; assay type: in vivo, Abutilon theophrasti; conditions: Preemergence
How it was run: as §1

wheat = assay: Test B pre/postemergence wheat; assay type: in vivo, Triticum aestivum; conditions: Preemergence
How it was run: as §1

wild oat = assay: Test B pre/postemergence wild oat; assay type: in vivo, Avena fatua; conditions: Preemergence
How it was run: as §1

purple nutsedge = assay: Test B pre/postemergence purple nutsedge; assay type: in vivo, Cyperus rotundus; conditions: Preemergence
How it was run: as §1

rice = assay: Test B flood test rice; assay type: in vivo, Oryza sativa
How it was run: (§2)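 Plants were grown to the 2-leaf stage before treatment with test chemical, then held in a greenhouse for twelve to sixteen days. Injury was visually rated against untreated controls on a 0–10 scale, where 0 is no effect and 10 is complete control.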

smallflower flatsedge = assay: Test B flood test smallflower flatsedge; assay type: in vivo, Cyperus difformis
How it was run: as §2

duck salad = assay: Test B flood test duck salad; assay type: in vivo, Heteranthera limosa
How it was run: as §2

bamyardgrass = assay: Test B flood test barnyardgrass; assay type: in vivo, Echinochloa crus-galli
How it was run: as §2

[1] = Rate 62 g/ha, scale of 0 to 10 where 0 is no effect and 10 is complete control
[2] = Rate 125 g/ha, scale of 0 to 10 where 0 is no effect and 10 is complete control
[3] = Rate 250 g/ha, scale 0 (no effect) to 10 (complete control)
[4] = Rate 500 g/ha, scale of 0 to 10 where 0 is no effect and 10 is complete control
[5] = Pre-emergence, Rate 62 g/ha, scale 0 to 10, 0 is no effect, 10 is complete control
[6] = Rate 125 g/ha, Pre-emergence section (flood test species), scale 0 to 10, 0 no effect, 10 complete control
[7] = Rate 250 g/ha, Pre-emergence (flood test species), scale 0 to 10, 0 is no effect, 10 is complete control
[8] = Rate 500 g/ha, Pre-emergence section of Table B, 0 to 10 scale (0 no effect, 10 complete control)

In the case of `CC(C)N(C(=O)n1oc(=O)n(CC2=NOCC2)c1=O)c1ccccc1` [Compound 706], the “Bedstraw plant response rating” value (bedstraw; [1]) is reported as 0, the “Plant response rating, Bedstraw” value (bedstraw; [2]) is reported as 0 and the “Bedstraw plant response rating” value (bedstraw; [3]) is reported as 0. The “Blackgrass plant response rating” value (blackgrass; [1]) was 8, the “Plant response rating, Blackgrass” value (blackgrass; [2]) was 8 and the “Blackgrass plant response rating” value (blackgrass; [3]) was 10. For the same compound, the “Plant response rating, Blackgrass” value (blackgrass; [4]) was 10, the “B. signalgrass plant response rating” value (surinam grass; [1]) was 2 and the “Plant response rating, B. signalgrass” value (surinam grass; [2]) was 8. For the same compound, the “B. signalgrass plant response rating” value (surinam grass; [3]) was 8, the “Plant response rating, B. signalgrass” value (surinam grass; [4]) was 10 and the “Cocklebur plant response rating” value (cocklebur; [1]) was 0. For the same compound, the “Plant response rating, Cocklebur” value (cocklebur; [2]) was 0, the “Cocklebur plant response rating” value (cocklebur; [3]) was 0 and the “Plant response rating, Cocklebur” value (cocklebur; [4]) was 0. The “Corn plant response rating” value (corn; [1]) was 0, the “Plant response rating, Corn” value (corn; [2]) was 0 and the “Corn plant response rating” value (corn; [3]) was 0. The “Crabgrass plant response rating” value (crabgrass; [1]) was 5, the “Plant response rating, Crabgrass” value (crabgrass; [2]) was 5 and the “Crabgrass plant response rating” value (crabgrass; [3]) was 8. The “Giant foxtail plant response rating” value (giant foxtail; [1]) was 6, the “Plant response rating, Giant foxtail” value (giant foxtail; [2]) was 6 and the “Giant foxtail plant response rating” value (giant foxtail; [3]) was 7. The “Morningglory plant response rating” value (morningglory; [1]) was 1, the “Plant response rating, Morningglory” value (morningglory; [2]) was 1 and the “Morningglory plant response rating” value (morningglory; [3]) was 1. The “Redroot pigweed plant response rating” value (pigweed; [1]) was 8, the “Plant response rating, Redroot pigweed” value (pigweed; [2]) was 8 and the “Redroot pigweed plant response rating” value (pigweed; [3]) was 10. The “Rape plant response rating” value (rape; [1]) was 0, the “Plant response rating, Rape” value (rape; [2]) was 0 and the “Rape plant response rating” value (rape; [3]) was 3. The “Soybean plant response rating” value (soybean; [1]) was 0, the “Plant response rating, Soybean” value (soybean; [2]) was 0 and the “Soybean plant response rating” value (soybean; [3]) was 0. For the same compound, the “Sugarbeets plant response rating” value (sugar beet; [1]) was 0, the “Plant response rating, Sugarbeets” value (sugar beet; [2]) was 4 and the “Sugarbeets plant response rating” value (sugar beet; [3]) was 4. The “Velvetleaf plant response rating” value (velvetleaf; [1]) was 0, the “Plant response rating, Velvetleaf” value (velvetleaf; [2]) was 1 and the “Velvetleaf plant response rating” value (velvetleaf; [3]) was 5. The “Wheat plant response rating” value (wheat; [1]) was 0, the “Plant response rating, Wheat” value (wheat; [2]) was 4 and the “Wheat plant response rating” value (wheat; [3]) was 5. For the same compound, the “Wild oats plant response rating” value (wild oat; [1]) was 4, the “Plant response rating, Wild oats” value (wild oat; [2]) was 7 and the “Wild oats plant response rating” value (wild oat; [3]) was 8. For the same compound, the “Nutsedge plant response rating” value (purple nutsedge; [1]) was 0, the “Nutsedge plant response rating” value (purple nutsedge; [3]) was 0 and the “Rice plant response rating” value (rice; [5]) was 0. For the same compound, the “Rice plant response rating” value (rice; [6]) was 0, the “Rice plant response rating” value (rice; [7]) was 0 and the “Rice plant response rating” value (rice; [8]) was 0. The “S. Flatsedge plant response rating” value (smallflower flatsedge; [5]) was 0, the “S. Flatsedge plant response rating” value (smallflower flatsedge; [6]) was 0 and the “S. Flatsedge plant response rating” value (smallflower flatsedge; [7]) was 0. For the same compound, the “S. Flatsedge plant response rating” value (smallflower flatsedge; [8]) was 0, the “Ducksalad plant response rating” value (duck salad; [5]) was 0 and the “Ducksalad plant response rating” value (duck salad; [6]) was 0. For the same compound, the “Ducksalad plant response rating” value (duck salad; [7]) was 0, the “Ducksalad plant response rating” value (duck salad; [8]) was 0 and the “Barnyardgrass plant response rating” value (bamyardgrass; [5]) was 0. For the same compound, the “Barnyardgrass plant response rating” value (bamyardgrass; [6]) was 0, the “Barnyardgrass plant response rating” value (bamyardgrass; [7]) was 0 and the “Barnyardgrass plant response rating” value (bamyardgrass; [8]) was 0.
